Results: publication PMC5737116, “Biochemical Properties of Human D-Amino Acid Oxidase” (Frontiers in Molecular Biosciences, 2017)
“Also recorded” adds a separate entry of the source. Read-outs that look alike come from different tables or passages of the source. Values belong to the compound of their own block, whether it stands above or below them.

How the values were obtained:
hDAAO holoenzyme [1] = molecular target: T1, hDAAO holoenzyme (Homo sapiens, UniProt P14920); assay: Ligand binding to hDAAO, protein fluorescence quenching; conditions: for Kd: 15°C
T1 construct: made in house; host or cells: E. coli
T1 sequence (P14920 whole entry): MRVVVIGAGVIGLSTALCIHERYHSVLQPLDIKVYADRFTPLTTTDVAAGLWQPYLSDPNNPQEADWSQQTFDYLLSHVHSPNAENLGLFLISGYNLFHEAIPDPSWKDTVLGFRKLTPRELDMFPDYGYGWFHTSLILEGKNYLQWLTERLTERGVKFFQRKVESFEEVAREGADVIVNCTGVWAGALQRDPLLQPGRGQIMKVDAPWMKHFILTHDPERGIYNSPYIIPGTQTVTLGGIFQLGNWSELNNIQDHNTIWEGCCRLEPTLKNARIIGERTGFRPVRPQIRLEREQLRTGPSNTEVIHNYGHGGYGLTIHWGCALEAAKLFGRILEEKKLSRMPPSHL

hDAAO [2] = molecular target: T2, hDAAO (Homo sapiens, UniProt P14920); assay: Modulation of hDAAO activity, standard activity assay; format: biochemical; conditions: for effect on hDAAO activity on D-alanine: D-alanine 2 or 28 mM, simultaneous 10 mM magnesium ions and 10 μM nucleotide
T2 construct: made in house; host or cells: E. coli
T2 sequence (P14920 whole entry): as above
Method: The effect of MgCl2 and CaCl2 (1 or 10 mM), of 10 μM ATP or GTP and of both divalent ions and nucleotides was assessed using the standard activity assay.

hDAAO [3] = molecular target: T2, hDAAO; assay: Oxygen-consumption activity assay, apparent kinetic parameters (substrate specificity); format: biochemical; conditions: for kcat / Km: apparent, 21% oxygen saturation, pH 8.5, 25°C; for oxidation by hDAAO: at 100 and 500 mM final concentration
hDAAO [4] = molecular target: T2, hDAAO; conditions: cited from earlier work
hDAAO apoprotein [5] = molecular target: T3, hDAAO apoprotein (Homo sapiens, UniProt P14920); assay: FAD binding to hDAAO apoprotein, protein fluorescence quenching; conditions: 15°C
T3 construct: made in house; host or cells: E. coli
T3 sequence (P14920 whole entry): as above
Method: Protein fluorescence spectra were measured at 1 μM protein concentration (0.04 mg/mL) in 20 mM Tris-HCl buffer, pH 8.0, 100 mM NaCl, 10% (v/v) glycerol, 5 mM 2-mercaptoethanol, and 40 μM FAD for the holoenzyme and in 50 mM sodium pyrophosphate, pH 8.3 for the apoprotein; spectra were recorded using a Jasco FP-750 instrument and were corrected for the buffer contribution. Protein fluorescence spectra were recorded between 300 and 400 nm, with excitation at 280 nm. […] In all cases, Kd-values were determined using an hyperbolic plot.

hDAAO apoprotein [6] = molecular target: T3, hDAAO apoprotein; assay: Holoenzyme reconstitution, decrease in flavin fluorescence at 528 nm; format: binding
Method: The holoenzyme reconstitution process was also investigated by adding increasing concentrations of apoprotein to ~1 μM of FAD and following the decrease in flavin fluorescence at 528 nm (excitation at 450 nm).

hDAAO apoprotein [7] = molecular target: T3, hDAAO apoprotein; conditions: cited from earlier work
hDAAO [8] = molecular target: T2, hDAAO; assay: Inhibition of D-serine oxidation by L-serine; format: biochemical
hDAAO [9] = molecular target: T2, hDAAO; assay: Reduction of FAD following anaerobic addition of L-amino acid; format: biochemical
Method: The ability of L-serine to bind at the hDAAO active site like the corresponding D-enantiomer is further confirmed by the observed reduction of FAD following anaerobic addition of the L-amino acid: 14 μM of hDAAO was reduced by 1 mM L-serine in >60 min.

hDAAO [10] = molecular target: T2, hDAAO; conditions: following enzyme inactivation; ref Kawazoe et al., 2006; cited from earlier work
hDAAO [11] = molecular target: T2, hDAAO; conditions: cited from earlier work; remark: listed apart in the source
hDAAO holoenzyme [12] = molecular target: T1, hDAAO holoenzyme; assay: Far-UV CD spectrum of hDAAO in the presence of ions and nucleotides; conditions: 1 or 10 mM
Method: Circular dichroism (CD) spectra were recorded using a Jasco J-815 spectropolarimeter (Jasco Co., Cremella, Italy) in 10 mM Tris-HCl, pH 8.0, 1% (v/v) glycerol, and 40 μM FAD. The cell path length was 0.1 cm for measurements in the 200- to 250-nm region (0.1 mg protein/mL) and 1 cm for measurements in the 250–350 nm range (0.4 mg protein/mL) (Caldinelli et al., [2010]).

[13] = apparent, 21% oxygen saturation, pH 8.5, 25°C, ref Molla et al., 2006
[14] = value in brackets, ref Raibekas et al., 2000
[15] = at pH 8.3, ref Kawazoe et al., 2007b
[16] = apparent, 21% oxygen saturation, pH 8.5, 25°C, ref Frattini et al., 2011

SMILES: Nc1ncnc2c1ncn2[C@@H]1O[C@H](COP(=O)(O)OP(=O)(O)OP(=O)(O)O)[C@@H](O)[C@H]1O [ATP]
change in protein fluorescence (hDAAO holoenzyme [1]; up to 20 mM): no change
effect on hDAAO activity on D-alanine (hDAAO [2]): not modified

specific activity (hDAAO [3]; saturating D-alanine concentration (28 mM), 25°C, pH 8.5, 200 μM FAD): 9.5 U/mg protein
SMILES: C[C@@H](N)C(=O)O [D-Alanine]
Km (hDAAO [4]; [13]): 1300 ± 200 µM
kcat (hDAAO [4]; [13]): 5.2 ± 0.1 s⁻¹
Km (hDAAO [4]; [14]): 1000 µM
kcat (hDAAO [4]; [14]): 10 s⁻¹

SMILES: N[C@H](CC(=O)O)C(=O)O [D-Aspartate]
kcat (hDAAO [4]; [13]): 6.7 ± 1.2 s⁻¹
kcat (hDAAO [4]; apparent, 21% oxygen saturation, pH 8.5, 25°C, ref Molla et al., 2006, listed as D-aspartate): 6.7 s⁻¹

SMILES: N[C@H](Cc1ccc(O)c(O)c1)C(=O)O [D-DOPA, 3,4-dihydroxyphenylalanine]
Ki (hDAAO [3]): 41300 µM
kcat (hDAAO [3]): ~ 40 s^−1
Km (hDAAO [3]; read-out: Km): 6000 ± 1300 µM
Km (hDAAO [4]; [15]): 1500 µM
kcat (hDAAO [4]; [15]): 21.7 s⁻¹
Ki (hDAAO [4]; substrate inhibition effect, at pH 8.3, ref Kawazoe et al., 2007b): 500 µM

SMILES: N[C@H](CCC(=O)O)C(=O)O [D-Glutamate]
Km (hDAAO [3]): b. d.
kcat (hDAAO [3]): b. d.
oxidation by hDAAO (hDAAO [3]): not oxidized
change in protein fluorescence (hDAAO holoenzyme [1]; up to 50 mM): no change

kcat (hDAAO [3]): 0.09 ± 0.01 s⁻¹
Km (hDAAO [3]; read-out: Km): 700 ± 400 µM
SMILES: Nc1ccccc1C(=O)C[C@@H](N)C(=O)O [D-Kynurenine]

SMILES: N[C@H](Cc1ccccc1)C(=O)O [D-Phenylalanine]
Km (hDAAO [4]; [16]): 2700 ± 200 µM
kcat (hDAAO [4]; [16]): 6.6 ± 0.1 s⁻¹
Km (hDAAO [4]; [15]): 1200 µM
kcat (hDAAO [4]; [15]): 15.5 s⁻¹

SMILES: O=C(O)[C@H]1CCCN1 [D-Proline]
Km (hDAAO [4]; [13]): 8500 ± 1000 µM
kcat (hDAAO [4]; [13]): 10.2 ± 0.1 s⁻¹

SMILES: N[C@H](CO)C(=O)O [D-Serine]
Km (hDAAO [4]; [13]): 7500 ± 500 µM
kcat (hDAAO [4]; [13]): 3.0 ± 0.1 s⁻¹
Km (hDAAO [4]; [15]): 3900 µM
kcat (hDAAO [4]; [15]): 4 s⁻¹
Km (hDAAO [4]; [14]): 1000 µM

SMILES: N[C@H](Cc1c[nH]c2ccccc12)C(=O)O [D-Tryptophan]
Km (hDAAO [4]; [16]): 1500 ± 100 µM
kcat (hDAAO [4]; [16]): 3.2 ± 0.1 s⁻¹

SMILES: N[C@H](Cc1ccc(O)cc1)C(=O)O [D-Tyrosine]
Km (hDAAO [4]; [15]): 1100 µM
kcat (hDAAO [4]; [15]): 14.8 s⁻¹

Kd (hDAAO apoprotein [5]; 7 μM benzoate, read-out: Kd, first phase): 0.43 ± 0.02 µM
Kd (hDAAO apoprotein [5]; 7 μM benzoate, read-out: Kd, second phase): 19.1 ± 2.8 µM
Kd (hDAAO apoprotein [5]; 70 μM benzoate, read-out: Kd, single saturation): 0.48 ± 0.02 µM
Kd (hDAAO apoprotein [5]; absence of active-site ligand, read-out: Kd, first phase): 0.43 ± 0.02 µM
Kd (hDAAO apoprotein [5]; absence of active-site ligand, read-out: Kd, second phase): > 30 µM
Kd (hDAAO apoprotein [6]; 70 μM benzoate, monophasic, read-out: Kd): 0.4 ± 0.04 µM
Kd (hDAAO apoprotein [6]; absence of benzoate, ~1 μM FAD titrated with apoprotein, read-out: Kd, 1): 0.67 ± 0.07 µM
Kd (hDAAO apoprotein [6]; absence of benzoate, ~1 μM FAD titrated with apoprotein, read-out: Kd, 2): 4 ± 0.9 µM
SMILES: Cc1cc2nc3c(=O)[nH]c(=O)nc-3n(C[C@H](O)[C@H](O)[C@H](O)COP(=O)(O)OP(=O)(O)OC[C@H]3O[C@@H](n4cnc5c(N)ncnc54)[C@H](O)[C@@H]3O)c2cc1C [FAD]
fold tighter interaction with FAD in the presence of an active site ligand (hDAAO apoprotein [7]; active site ligand such as benzoate, ref Molla et al., 2006): 20 fold
Kd (hDAAO apoprotein [7]; benzoate binding, ref Molla et al., 2006, Caldinelli et al., 2010, read-out: Kd, flavin interaction with benzoate bound): 0.3 µM
Kd (hDAAO apoprotein [7]; interaction with the flavin cofactor, ref Molla et al., 2006, read-out: Kd): 8 µM

effect on hDAAO activity on D-alanine (hDAAO [2]): not modified
SMILES: Nc1nc2c(ncn2[C@@H]2O[C@H](COP(=O)(O)OP(=O)(O)OP(=O)(O)O)[C@@H](O)[C@H]2O)c(=O)[nH]1 [GTP]

apparent Km, fold higher than physiological concentration (hDAAO [3]): ~ 1,000 fold
change in protein fluorescence (hDAAO holoenzyme [1]; up to 50 mM): no change
SMILES: NCC(=O)O [Glycine]
kcat (hDAAO [4]; [13]): ~ 0.9 s^−1

SMILES: CC(=O)N[C@@H](CS)C(=O)O [L-NAC, N-acetyl-L-cysteine]
effect on hDAAO activity (hDAAO [2]; 1 or 10 mM, even when added 60 min before the assay): does not affect; also recorded: not altered

type of inhibition (hDAAO [8]; D-serine oxidation at increasing L-serine concentrations): competitive inhibitor
Ki (hDAAO [8]; competitive versus D-serine): 26200 µM
time for reduction of hDAAO flavin (hDAAO [9]; 14 μM hDAAO, 1 mM L-amino acid, anaerobic): > 60 min
SMILES: N[C@@H](CO)C(=O)O [L-serine]

Km (hDAAO [3]): b. d.
kcat (hDAAO [3]): b. d.
oxidation by hDAAO (hDAAO [3]): not oxidized
change in protein fluorescence (hDAAO holoenzyme [1]; up to 50 mM): no change
reduction of FAD following anaerobic addition (hDAAO [9]; compared with L-serine, not shown): not
SMILES: CN[C@H](CC(=O)O)C(=O)O [N-Methyl-D-aspartate]

Kd (hDAAO holoenzyme [1]; higher ligand concentrations, ~80% of fluorescence change, read-out: Kd, second saturation): 2590 ± 680 µM
Kd (hDAAO holoenzyme [1]; low benzoate concentrations (≤ 20 μM), read-out: Kd, first saturation): 0.33 ± 0.04 µM
SMILES: O=C(O)c1ccccc1 [benzoate]
Ki (hDAAO [10]): 7 µM
Kd (hDAAO [11]; CD signal at ~270 nm, ref Caldinelli et al., 2010): 9.5 µM
Kd (hDAAO [11]; formation of a shoulder at 484 nm in the absorbance spectrum, ref Raibekas et al., 2000, Molla et al., 2006): 5 to 7 µM

effect on far-UV CD spectrum / protein conformation (hDAAO holoenzyme [12]): slightly modified
SMILES: [Ca+2] [calcium ions]

SMILES: CN(C)CCCN1c2ccccc2Sc2ccc(Cl)cc21 [chlorpromazine]
competition with FAD for the binding to hDAAO apoprotein (hDAAO apoprotein [7]; ref Iwana et al., 2008, Sacchi et al.): compete with FAD

effect on hDAAO activity (hDAAO [2]; 1 or 10 mM final concentration): do not modify
effect on far-UV CD spectrum / protein conformation (hDAAO holoenzyme [12]): do not modify
SMILES: [Mg+2] [magnesium ions]
